One assay concerns MV4-11 cells. Put plainly: Antiproliferative activity, MTT assay. Type of assay: cell-based, human. The conditions noted are these: for IC50: 72 h exposure, MTT, mean ± SD, n.a = no activity in concentration of 5, 25, 125, 625 μM; for Selectivity index SI, MV4-11: SI = IC50 BALB/3T3 / IC50 MV4-11. On the procedure:
Human biphenotypic B myelomonocytic leukemia MV4-11, human colon cancer LoVo cell line and normal mouse fibroblast BALB/3T3 cells were obtained from American Type Culture Collection (Rockville, Maryland, USA), human lung carcinoma A549 cells were obtained from European Collection of Authenticated Cell Cultures (UK). All the cell lines are being maintained at the Hirszfeld Institute of Immunology and Experimental Therapy, PAS, Wroclaw, Poland and were cultured according the procedure described before.
Cell lines were cultured according to the protocol described before. MV4-11 cells were cultured in RPMI 1640 medium (Gibco, UK) with 1.0 mM sodium pyruvate, and 10% fetal bovine serum (FBS) (all from Sigma-Aldrich, Germany). A549, LoVo and LoVo/DX cells were cultured in RPMI 1640 + Opti-MEM (1:1) (both from Gibco, UK) supplemented with 5% fetal bovine serum, 1.0 mM sodium pyruvate (LoVo and LoVo/DX cells) (all from Sigma Aldrich Germany) and 0.1 μg/mL doxorubicin chloride (Accord) (only LoVo/DX cells). BALB/3T3 cells in Dulbecco medium (IIET, Poland) supplemented with 10% fetal bovine serum (Sigma-Aldrich, Germany). All culture media were supplemented with 2 mM L-glutamine (Sigma-Aldrich, Germany), 100 units/mL penicillin, and 100 µg/mL streptomycin (both from Polfa Tarchomin S.A., Poland). All cell lines were grown at 37 °C with 5% CO2 humidified atmosphere.
The solutions of the compounds (50 mM) were prepared by dissolving the substances in DMSO (Sigma Aldrich, Germany). Then the tested compounds were diluted in culture medium to reach the final concentrations of 625, 125, 25 and 5 μM. Before adding of the tested compounds (24 h prior), the cells were plated in 96-well plates (Sarstedt, Germany) at a density of 1 × 10^4 or 0.5 × 10^4 (A549) cells per well. The assay was performed after 72 h of exposure to 625, 125, 25 and 5 μM of the tested agents. The in vitro cytotoxic effect of all agents was examined using the MTT (MV4-11) or SRB assay, described previously. The results were calculated as an IC50 (inhibitory concentration 50%) the concentration of tested agent, which is cytotoxic for 50% of the cancer cells. Each compound in each concentration was tested in triplicate in a single experiment, which was repeated 3–5 times.
(In general: Formazan colour is commonly taken as a measure of viable cells.)

The next assay relates to LoVo/DX cells. Put plainly: Antiproliferative activity, SRB assay, doxorubicin resistant subline. The conditions noted are these: for IC50: 72 h exposure, SRB, mean ± SD, n.a = no activity in concentration of 5, 25, 125, 625 μM; for Selectivity index SI, LoVo/DX: SI = IC50 BALB/3T3 / IC50 LoVo/DX. Type of assay: cell-based, human. The procedure:
Cell lines were cultured according to the protocol described before. […] All culture media were supplemented with 2 mM L-glutamine (Sigma-Aldrich, Germany), 100 units/mL penicillin, and 100 µg/mL streptomycin (both from Polfa Tarchomin S.A., Poland). All cell lines were grown at 37 °C with 5% CO2 humidified atmosphere. The solutions of the compounds (50 mM) were prepared by dissolving the substances in DMSO (Sigma Aldrich, Germany). […] The in vitro cytotoxic effect of all agents was examined using the MTT (MV4-11) or SRB assay, described previously. […] Each compound in each concentration was tested in triplicate in a single experiment, which was repeated 3–5 times.
For orientation: Sulforhodamine B stains cellular protein and so reports cell mass.

The test system of the next assay is Myzus persicae. The assay can be described thus: EPG monitoring of aphid probing and feeding (no-choice test). Type of assay: in vivo. The conditions noted are these: 8-h EPG; for Mean duration of probing (C + G + E) / Number of probes / Total duration of pathway (C) / Total duration of phloem phase (E) / Total duration of probing (C + G + E): 0.1% solution, n = 12; for Mean duration of probing (C + G + E) / Number of probes / Total duration of pathway (C) / Total duration of phloem phase (E) / Total duration of probing (C + G + E) / Number of probes before first phloem phase / Time from first probe to first phloem phase / Duration of first phloem phase / Total duration of phloem salivation E1 / Total duration of phloem sap ingestion E2 / Number of probes < 3 min: mean ± SE; for Number of probes before first phloem phase / Time from first probe to first phloem phase: activities in non-phloem tissues; for Number of probes before first phloem phase / Time from first probe to first phloem phase / Duration of first phloem phase / Total duration of phloem salivation E1 / Total duration of phloem sap ingestion E2 / Number of probes < 3 min: n = 10-12; for Duration of first phloem phase / Total duration of phloem salivation E1 / Total duration of phloem sap ingestion E2: activities in sieve elements; for Number of probes < 3 min: before first phloem phase; for Proportion of salivation in phloem phase: (duration of E1 / duration of E1 + E2)*100; for Proportion of phloem phase in total probing: index = duration of phloem phase E / duration of probing C + G + E. The procedure:
The peach potato aphids Myzus persicae (Sulzer) and the Chinese cabbage Brassica rapa subsp. pekinensis (Lour.) Hanelt were reared in laboratory at 20 °C, 65% r.h., and L16:8D photoperiod. One to seven days old apterous females of M. persicae and 3-week old plants with 4–5 fully developed leaves were used for experiments. M. persicae were obtained from the laboratory culture maintained at the Department of Botany and Ecology for many generations since 2000. All experiments were carried out under the same conditions of temperature, relative humidity, and photoperiod. The bioassays were started at 10–11.a.m. Each compound was dissolved in 70% ethanol to obtain the recommended 0.1% solution[40]. All compounds were applied on the adaxial and abaxial leaf surfaces by immersing a leaf in the ethanolic solution of a given compound for 30 s.[20]. Control leaves of similar size were immersed in 70% ethanol that was used as a solvent for the studied compounds. Experiments were performed 1 h after the compounds application to allow the evaporation of the solvent. Every plant and aphid were used only once.
Aphid probing and the phloem sap uptake by M. persicae was monitored using the technique of electronic registration of aphid probing in plant tissues, known as EPG (= Electrical Penetration Graph), that is frequently employed in insect–plant relationship studies considering insects with sucking-piercing mouthparts[42]–[44]. In this experimental set-up, aphid and plant are connected to electrodes and thus made parts of an electric circuit, which is completed when the aphid inserts its stylets into the plant. Weak voltage is supplied in the circuit, and all changing electric properties are recorded as EPG waveforms that can be correlated with aphid activities and stylet position in plant tissues[45],[46]. The parameters describing aphid behaviour during probing and feeding, such as total time of probing, proportion of phloem patterns E1 and E2, number of probes, etc., are good indicators of plant suitability or interference of probing by chemical or physical factors in individual plant tissues[44]–[46]. In the present study, aphids were attached to a golden wire electrode with conductive silver paint (epgsystems. eu) and starved for 1 h prior to the experiment. Probing behaviour of 12 apterous females/studied compound and control was monitored for 8 h continuously with Giga-4 and Giga-8 DC EPG with 1 GΩ of input resistance recording equipment (EPG Systems, Wageningen, The Netherlands). Each aphid was given access to a freshly prepared plant and each aphid/plant combination was used only once. Various behavioural phases were labelled manually using the Stylet + software (www.epgsystems.eu). The following aphid behaviours were distinguished: no penetration (waveform 'np' – aphid stylets outside the plant), pathway phase—penetration of non-phloem tissues (waveforms 'ABC'), phloem phase (salivation into sieve elements, waveform ‘E1’ and ingestion of phloem sap, waveform ‘E2’), and xylem phase (ingestion of xylem sap, waveform 'G'). Waveform ‘G’ occurred rarely irrespective of the treatment. Therefore, in all calculations the xylem phase was added to the pathway phase and termed as probing in non-phloem tissues. The E1/E2 transition patterns were included in E2. Waveform patterns that were not terminated before the end of the experimental period (8 h) were not excluded from the calculations. The parameters derived from EPG recordings were analyzed according to their frequency and duration in configuration related to activities in peripheral and vascular tissues.
All statistical calculations related to data of the no-choice test were performed using StatSoft, Inc. (2014) STATISTICA (data analysis software system), version 12, www.statsoft.com. […]

As usually defined, the IC50 is the concentration needed to halve the response being measured.

Consider “3,7,11,15-tetramethylhexadec-2-en-1-ol [Phytol (1), reference compound]”, for which, in the assay with MV4-11 cells, the IC50 was determined as 51.4 ± 3.6 µM and the “Selectivity index SI, MV4-11” value was found to be 1.25. For the same molecule, in the assay with LoVo/DX cells, the IC50 was 70.8 ± 3.9 µM and the “Selectivity index SI, LoVo/DX” value worked out at 0.91. Moreover, in the assay with Myzus persicae, the “Mean duration of probing (C + G + E)” value amounted to 0.3 ± 0.1 h, the Number of probes worked out at 41.4 ± 7.6, the “Total duration of pathway (C)” value was 4.2 ± 0.4 h and the “Total duration of phloem phase (E)” value was found to be 2.8 ± 0.5 h. In the assay on Myzus persicae, the “Total duration of probing (C + G + E)” value was found to be 7.1 ± 0.2 h, the “Duration of first phloem phase” value is 1.6 ± 0.5 h, the “Total duration of phloem salivation E1” value is reported as 8.4 ± 2.4 min and the “Total duration of phloem sap ingestion E2” value was found to be 2.7 ± 0.5 h. Also, in the assay on Myzus persicae, the “Number of probes < 3 min” value is 18.8 ± 3.6, the “Proportion of salivation in phloem phase” value is given as 18.3% and the “Proportion of phloem phase in total probing” value (“Proportion of phloem phase” below) is on record as 38.4%. Besides, the “Number of probes before first phloem phase” value in the assay with Myzus persicae (listed as phytol) is given as 27.0 (± 5.3). Besides, in the assay with Myzus persicae (listed as phytol (1)), the “Number of probes before first phloem phase” value is recorded as 27.0 ± 5.3 and the “Time from first probe to first phloem phase” value (shortened to “Time from first probe”) came to 2.7 ± 0.6 h.

In the assay on MV4-11 cells (Homo sapiens, MV4-11), `CC(C)CCCC(C)CCCC(C)CCC[C@]1(C)CC(=O)O[C@@H]1CBr` (stereo in doubt) [compound 4, trans-5-Bromomethyl-4-methyl-4-(4′,8′,12′-trimethyltridecyl)dihydrofuran-2-one] yielded an IC50 of 46.9 ± 11.7 µM. The “Selectivity index SI, MV4-11” value in the assay with MV4-11 cells came to 7.43. The molecule also came in with an IC50 in the assay on LoVo/DX cells (Homo sapiens, LoVo/DX) of 306 ± 136 µM. Besides, in the assay with LoVo/DX cells, the “Selectivity index SI, LoVo/DX” value was found to be 1.14. In the assay on Myzus persicae, the “Mean duration of probing (C + G + E)” value was 0.9 ± 0.3 h, the Number of probes is 20.8 ± 5.2, the “Total duration of pathway (C)” value amounted to 2.4 ± 0.6 h and the “Total duration of phloem phase (E)” value stood at 4.8 ± 0.8 h. In addition, in the assay on Myzus persicae, the “Total duration of probing (C + G + E)” value worked out at 7.4 ± 0.3 h, the “Number of probes before first phloem phase” value is recorded as 17.2 ± 4.8, the “Time from first probe” value worked out at 2.7 ± 0.8 h and the “Duration of first phloem phase” value was found to be 3.0 ± 0.9 h. For the same molecule, in the assay with Myzus persicae, the “Total duration of phloem salivation E1” value was 1.8 ± 0.6 min, the “Total duration of phloem sap ingestion E2” value is reported as 4.8 ± 0.8 h, the “Number of probes < 3 min” value is recorded as 8.5 ± 3.6 and the “Proportion of salivation in phloem phase” value came out at 1.5%. In addition, in the assay on Myzus persicae, the “Proportion of phloem phase” value was 62.9%.

In the assay with MV4-11 cells (Homo sapiens, MV4-11), `CC(C)CCCC(C)CCCC(C)CCC[C@]1(C)CC(=O)O[C@H]1CBr` (stereo in doubt) [compound 5, cis-5-Bromomethyl-4-methyl-4-(4′,8′,12′-trimethyltridecyl)dihydrofuran-2-one] gave an IC50 of 52 ± 13.8 µM. Further, the “Selectivity index SI, MV4-11” value with MV4-11 cells came out at 8.15. This molecule registered an IC50 in the assay on LoVo/DX cells (Homo sapiens, LoVo/DX) of 261 ± 104 µM. The “Selectivity index SI, LoVo/DX” value in the assay with LoVo/DX cells was 1.62. Moreover, in the assay with Myzus persicae, the “Mean duration of probing (C + G + E)” value is 0.5 ± 0.1 h, the Number of probes is given as 31.6 ± 9.1, the “Total duration of pathway (C)” value turned out to be 2.8 ± 0.5 h and the “Total duration of phloem phase (E)” value is given as 4.0 ± 0.7 h. Moreover, in the assay with Myzus persicae, the “Total duration of probing (C + G + E)” value amounted to 7.1 ± 0.4 h, the “Number of probes before first phloem phase” value was 10.3 ± 3.1, the “Time from first probe” value came to 1.4 ± 0.3 h and the “Duration of first phloem phase” value is 2.2 ± 0.8 h. In addition, in the assay on Myzus persicae, the “Total duration of phloem salivation E1” value is 2.4 ± 0.6 min, the “Total duration of phloem sap ingestion E2” value was determined as 4.0 ± 0.7 h, the “Number of probes < 3 min” value is listed as 7.1 ± 2.8 and the “Proportion of salivation in phloem phase” value is listed as 3.8%. For the same molecule, in the assay with Myzus persicae, the “Proportion of phloem phase” value came out at 54.0%.

In turn, `CC(C)CCCC(C)CCCC(C)CCC[C@]1(C)CC(=O)O[C@@H]1CCl` (stereo in doubt) [compound 6, trans-5-Chloromethyl-4-methyl-4-(4′,8′,12′-trimethyltridecyl)dihydrofuran-2-one] displayed an IC50 in the assay with MV4-11 cells (Homo sapiens, MV4-11) of 48.3 ± 19.6 µM. In the assay with MV4-11 cells, the “Selectivity index SI, MV4-11” value came to 5.65. For the same molecule, in the assay with LoVo/DX cells (Homo sapiens, LoVo/DX), 188 ± 32.7 µM corresponded to half-maximal inhibition (IC50). In addition, in the assay on LoVo/DX cells, the “Selectivity index SI, LoVo/DX” value is 1.46. Besides, in the assay with Myzus persicae, the “Mean duration of probing (C + G + E)” value was found to be 1.2 ± 0.7 h, the Number of probes came to 42.9 ± 10.4, the “Total duration of pathway (C)” value was 3.0 ± 0.5 h and the “Total duration of phloem phase (E)” value was 3.5 ± 0.8 h. Moreover, in the assay on Myzus persicae, the “Total duration of probing (C + G + E)” value is 6.6 ± 0.5 h, the “Number of probes before first phloem phase” value was found to be 24.9 ± 9.0, the “Time from first probe” value was 3.0 ± 0.8 h and the “Duration of first phloem phase” value was determined as 2.0 ± 0.8 h. For the same molecule, in the assay with Myzus persicae, the “Total duration of phloem salivation E1” value is 3.0 ± 1.2 min, the “Total duration of phloem sap ingestion E2” value was found to be 3.5 ± 0.8 h, the “Number of probes < 3 min” value is recorded as 20.3 ± 7.9 and the “Proportion of salivation in phloem phase” value is 9.7%. Further, in the assay on Myzus persicae, the “Proportion of phloem phase” value is 46.7%.
